Reference: patent US9745349B2, “Cyclic peptide and pharmaceutical product containing same” (JAPAN SCIENCE AND TECHNOLOGY AGENCY, priority 2012, dated 2017)

Target: O-acyl isopeptide of Aβ (Homo sapiens, UniProt P05067)
Test: Aβ aggregation inhibition test (thioflavin T fluorescence)
Type: biochemical
Conditions: inhibitor 30 μM, Aβ O-acyl isopeptide 10 μM, 0.1 M phosphate buffer pH 7.4, 1% DMSO, 37° C.; DMSO control taken as 100
Description: An aggregation inhibitory peptide solution (DMSO solution) was added to a 0.1 M phosphate buffer (pH 7.4, 50 μL) containing O-acyl isopeptide of Aβ (10 μM) (final concentration of inhibitor: 30 μM, 1% DMSO), and the resultant mixture was incubated at 37° C. for a specific period of time. Thereafter, a portion of the reaction mixture (10 μL) was added to a mixture of thioflavin T solution (50 μM thioflavin T, 10 μL) and 50 mM glycine-NaOH buffer (pH 8.5, 396 μL). Immediately thereafter, they were mixed together, and the fluorescence intensity of thioflavin T was measured at an excitation wavelength of 440 nm and an emission wavelength of 480 nm.

O-acyl isopeptide of Aβ, sequence (P05067 672-713 limits assumed): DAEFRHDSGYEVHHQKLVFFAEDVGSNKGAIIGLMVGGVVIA

Row | Substance | Aggregation inhibitory activity ratio (the lower the ratio, the higher the inhibitory activity)
1 | cyclo-D-[Ala-Leu-Val-Phe-Phe] (ALVFF; HELM PEPTIDE1{[dA].[dL].[dV].[dF].[dF]}$PEPTIDE1,PEPTIDE1,1:R1-5:R2$$$V2.0; SMILES CC(C)C[C@H]1NC(=O)[C@@H](C)NC(=O)[C@@H](Cc2ccccc2)NC(=O)[C@@H](Cc2ccccc2)NC(=O)[C@@H](C(C)C)NC1=O) [Compound 3] | 66
2 | cyclo-D-[Lys-Ala-Val-Phe-Phe] [Compound 4] | 88
3 | cyclo-D-[Lys-Leu-Ala-Phe-Phe] [Compound 5] | 82
4 | cyclo-D-[Lys-Leu-Val-(4-(2-Py)-Ph)Ala-Phe] [Compound 13] | 81
5 | cyclo-D-[Lys-Leu-Val-(4-(3-Py)-Ph)Ala-Phe] [Compound 14] | 49
6 | cyclo-D-[Lys-Leu-Val-(4-(3-phenol)-Ph)Ala-Phe] [Compound 17] | 39
7 | cyclo-D-[Lys-Leu-Val-(4-(4-Py)-Ph)Ala-Phe] [Compound 15] | 57
8 | cyclo-D-[Lys-Leu-Val-(4-(5-pyrimidine)-Ph)Ala-Phe] [Compound 16] | 90
9 | cyclo-D-[Lys-Leu-Val-Ala-Phe] [Compound 6] | 106
10 | cyclo-D-[Lys-Leu-Val-Phe(βPh)-Phe] [Compound 8] | 28
11 | cyclo-D-[Lys-Leu-Val-Phe-Ala] [Compound 7] | 104
